Results reported in US20250026848A1, “IDENTIFICATION OF PATHOGENIC IMMUNE CELL SUBSETS IN CHECKPOINT INHIBITOR-INDUCED MYOCARDITIS” (U.S. GOVERNMENT AS REPRESENTED BY THE DEPARTMENT OF …, priority 2021, published 2025).

Tested on: ICI myocarditis
Assay: Longitudinal follow-up of one ICI myocarditis patient (MCE1) treated with glucocorticoids: cardiac biomarker troponin I
Assay type: in vivo, human
Settings: one patient with MRI-confirmed ICI myocarditis; 60 mg/day from first day of diagnosis, four-week steroid taper
Method: In order to evaluate the time evolution of clonally-expanded T-cells in ICI myocarditis, we longitudinally analyzed PBMCs from one patient with MRI-confirmed myocarditis at early (t=0 days) and late (t=65 days) timepoints (FIG. 5A). This patient received glucocorticoids (60 mg/day of prednisone) for treatment of their myocarditis on the first day of their diagnosis (after blood collection) and underwent a successful four-week steroid taper with resolution of their cardiac biomarkers (troponin I, measured in ng/ml) by day 25. […] Due to the availability of early and late myocarditis blood samples, our study also provides new insight into the time-course of cellular and molecular changes that occur throughout the onset and resolution of ICI myocarditis. ICI myocarditis has a notoriously unpredictable time course and can occur with a median onset of 17-34 days after initiation of ICI therapy, although cases have been identified anywhere from 1 to 240 days from start of therapy (34,38-40). In our patient, we were able to collect blood at the time of diagnosis of the positive troponin I of 10 ng/ml (t=0) and track to day 65 after a full four-week course of glucocorticoids and resolution of clinical signs of myocarditis. […]

C[C@]12C=CC(=O)C=C1CC[C@@H]1[C@@H]2C(=O)C[C@@]2(C)[C@H]1CC[C@]2(O)C(=O)CO [prednisone]
resolution of cardiac biomarkers (troponin I): ≤ 25 days
